Measurements published in patent US8501691B2, “Methods for treatment of headaches by administration of oxytocin” (The Board of Trustees of the Leland Stanford Junior …, priority 2005, dated 2013).

Assays:
[1] = tested on: “stress” or tension headache; assay type: in vivo, human; conditions: 4 IU in 0.2 ml intranasal
Procedure: (§1) Upon presentation at the clinic, a patient is asked for a pain assessment (0-10 rating on VAS). The VAS is an 11-point numerical pain rating scale wherein 0 equals “no pain” and 10 equals the “worst pain imaginable”. The analgesic agent is self-administered by nasal applicator. Initially, one puff is given in each nostril. After waiting 15 minutes the patient is asked again for a pain rating and any side effects (e.g. sedation) are assessed. If pain is still present, another puff per nostril is self-administered. After another 15 minutes, pain and side-effects are assessed. If pain is still present, two mote puffs of agent are self-administered. After 15 minutes, pain is rated again, and side effects are assessed. If pain is still present, a final two puffs are given. After another 15 minutes and at 15, 30 and 60 minutes after that, pain and side-effects are re-assessed.
A patient was seen reporting a “stress” or tension headache for which they rated their head pain as a 5 out of 10 as assessed by the procedure described herein. The patient was treated with oxytocin administered intranasally at a dose of 4 IU in 0.2 ml. Approximately 10-15 minutes after administration, the patient reported that the pain was completely gone. […] The patient reported being pain free for approximately 48 hours.

[2] = tested on: trigeminal nucleus caudalis wide dynamic range (WDR) neurons; experiment: Electrical stimulation-induced responses, single unit extracellular recordings in trigeminal nucleus caudalis; assay type: in vivo, rat
Procedure: Male Sprague-Dawley rats (Charles River Laboratories) were anesthetized with isoflurane and used in the following experiments. In the anesthetized rats, single unit, extracellular recordings were performed in trigeminal nucleus caudalis while stimulating the ipsilateral facial skin with constant-current bipolar electrical stimulation. Epoxylate-insulated, tungsten microelectrodes (10 MOhm) were used under stereotaxic coordinate control.
Shown are responses (action potentials per 30 stimuli) to repeated stimulation of a rat's face before oxytocin administration (pre-oxytocin). After administration with oxytocin at approximately 0.1 IU, responses were recorded every five minutes for 65 minutes. A second administration of oxytocin at the same dosage was administered at approximately 70 minutes after the first dose. The approximate site of the administration of the electrical stimulation is indicated by the black spot on a map of the rat's face (FIG. 3B).

daily migraine = experiment: Intranasal oxytocin in a patient, pain rating on VAS (0-10); assay type: in vivo, human; conditions: 24 IU intranasal, baseline pain rating 4 out of 10
Procedure: as §1
A patient was seen after reporting a daily migraine which they rated as a mild to moderate headache with a pain rating of 4 out of 10 as assessed by the procedure described herein. The patient was treated with oxytocin administered intranasally at a dose of 24 IU. The patient reported that the oxytocin decreased the pain to a rating of 2 out of 10.

[3] = tested on: severe headaches secondary to adult hydrocephalus and multiple shunt surgeries; experiment: as above; assay type: in vivo, human
Procedure: as §1
The patient's pain had been unrelieved by treatment with triptans, ergotamines, and high-dose opiates. The patient presented with a pain rating of 8 out of 10 as assessed by the procedure described herein. The patient self-administered oxytocin intranasally at a dose of 4 IU in 0.2 ml. […] Pain relief lasted approximately 24 hours, only briefly interrupted by mild head pain that occurred with activity.
This patient returned to the clinic approximately 1 month later. At this appointment the patient rated the pain as an 8 out of 10. Unbeknownst to them, the patient was first given an intranasal administration of normal saline, in approximately the same volume as used for the oxytocin administration (0.2 ml). No analgesic or other effect was reported by the patient. After waiting 30 minutes, the patient was administered 4 IU of oxytocin intranasally as described above. Within 20-25 minutes, the patient reported that the pain was completely gone. […] Pain returned approximately 24 hours after treatment.

[4] = tested on: single pain sensing nerve cells in the trigeminal ganglion; experiment: Trigeminal ganglion nerve impulses in response to noxious laser pulses to the face; assay type: in vivo, rat; conditions: 10 nmoles applied to the nose, post- vs pre-oxytocin
Procedure: Sprague-Dawley rats (Charles River Laboratories) were anesthetized with isofluorane and a platinum electrode was inserted transcranially into the trigeminal ganglion. Nerve impulses (action potential) were recorded from single pain sensing nerve cells in the trigeminal ganglion in response to application of noxious laser pulses to the face of the rats. After recording responses to several identical laser pulses, 10 nmoles of oxytocin was applied to the nose of the rats. Thereafter, identical laser pulses were once again applied and recorded.

“cluster” headache = experiment: Intranasal oxytocin in a patient with headache; assay type: in vivo, human; conditions: 16 IU intranasal
Procedure: as §1
A patient was seen reporting having an ongoing strong headache with occasional boring pain on the left side. The pain had lasted for more than 2 weeks and had been diagnosed as a “cluster” headache. The patient was treated with oxytocin administered intranasally at a dose of 16 IU. The patient reported that their headache completely resolved within 15 minutes and relief lasted for 24 hours.

“hangover” headache = experiment: Intranasal oxytocin in a patient, pain rating on VAS (0-10); assay type: in vivo, human; conditions: 24 IU intranasal, baseline 8 out of 10
Procedure: as §1
A patient was seen reporting a “hangover” headache which was rated as an 8 out of 10 as assessed by the procedure described herein. The patient was treated with oxytocin administered intranasally at a dose of 24 IU. The patient reported that the headache completely resolved within 15 minutes.

Sprague-Dawley rats = experiment: Withdrawal latencies after noxious thermal (laser) stimulation to the ears or hindpaws after intranasal administration; assay type: in vivo, rat; conditions: 10 μg intranasal, tested five minutes after final application
Text: Activity of an analgesic agent can be tested in a rat model by studying treatment-induced changes in latencies (times) of withdrawal in response to noxious heating of the skin, typically applying a stimulus to an ear or a hindpaw. Thus, application of coherent or non-coherent (non-laser) radiant heat to the ear or hindpaw will elicit rapid withdrawal movements. […] Transmucosal or transdermal administration of analgesic agents can be tested for regional and/or systemic analgesia. After administration of an analgesic agent an increase in latency to withdrawal time of the ear would indicate regional analgesia. A change in the latency to withdrawal time of the hindpaw would indicate whether there was a systemic analgesic effect, i.e. no change in the latency to withdrawal time indicates no systemic effect, while an increase in latency to withdrawal time would indicate a systemic effect.
Rats are housed in a 12/12-hour light/dark environment and are provided food and water ad libitum. […]
Sprague-Dawley rats (Charles River Laboratories) were lightly anesthetized with urethane and placed with minimal restraint on a heating pad to maintain their body temperature at 37° C. […] Baseline withdrawal latencies were measured by delivering 4 separate stimuli with a resting period of approximately 15 minutes between each stimulus. […] As described above, testing sessions were videotaped and analyzed. […]

[5] = approximately 0.1 IU intranasal, first administration
[6] = second dose, same dosage, approximately 70 minutes after the first
[7] = first visit, 4 IU in 0.2 ml intranasal
[8] = first visit, 4 IU intranasal, baseline pain rating 8 out of 10

CC[C@H](C)[C@@H]1NC(=O)[C@H](Cc2ccc(O)cc2)NC(=O)[C@@H](N)CSSC[C@@H](C(=O)N2CCC[C@H]2C(=O)N[C@@H](CC(C)C)C(=O)NCC(N)=O)NC(=O)[C@H](CC(N)=O)NC(=O)[C@H](CCC(N)=O)NC1=O [oxytocin, Cys-Tyr-Ile-Gln-Asn-Cys-Pro-Leu-Gly]
duration pain free [1]: approximately 48 hours | time until pain completely gone ([1]; baseline pain 5 out of 10): 10 to 15 min | responses (action potentials per 30 stimuli) after first administration [2, 5]: significant reduction in responses | time of beginning of reduction in responses after first administration [2, 5]: 10 min | time post treatment until which reduction continued (responses then began to increase) [2, 5]: 50 min | responses (action potentials per 30 stimuli) after second administration [2, 6]: significant reduction in responses | time to reduction in responses after second administration [2, 6]: ≤ 10 min | pain rating after treatment (daily migraine): 2 out of 10 | sedation [3, 7]: mild sedation | time for sedation to clear [3, 7]: ≤ 10 min | time to onset of sedation [3, 7]: ≤ 5 min | breast tenderness the day after treatment ([3]; first visit, 4 IU intranasal): some breast tenderness | duration of pain relief ([3]; first visit, 4 IU intranasal): approximately 24 hours | time for breast tenderness to resolve ([3]; first visit, 4 IU intranasal): ≤ 24 h | headache pain by 15 minutes after administration [3, 8]: significantly reduced | time until pain completely gone [3, 8]: ≤ 30 min | time until pain completely gone ([3]; second visit about 1 month later, 4 IU intranasal 30 minutes after saline, baseline 8 out of 10): 20 to 25 min | breast tenderness the following day ([3]; second visit, 4 IU intranasal): nor was there any breast tenderness | sedation ([3]; second visit, 4 IU intranasal): no observed sedation | time until pain returned after treatment ([3]; second visit, 4 IU intranasal): approximately 24 hours | neuronal response to noxious laser pulses (average nerve impulses per laser pulse) [4]: significantly (p<0.05) reduced | duration of relief (“cluster” headache): 24 h | time until headache completely resolved (“cluster” headache): ≤ 15 min | time until headache completely resolved (“hangover” headache): ≤ 15 min | regional analgesic effect (ear withdrawal latency) (Sprague-Dawley rats; laser to ears): achieved a regional analgesic effect in the head region | systemic analgesic effect (hindpaw withdrawal latency) (Sprague-Dawley rats; laser to hindpaws): without a systemic analgesic effect at the hindpaw
